Laboratory results from ChEMBL document CHEMBL4507275, “Data for DCP probe BI-2545” (2021).

What was measured:
[1] = molecular target: Mitogen-activated protein kinase 11 (Homo sapiens) (UniProt Q15759); conditions: Compound concentration 1000.0 nM
[2] = molecular target: Tyrosine-protein kinase ZAP-70 (Homo sapiens) (UniProt P43403); conditions: Compound concentration 1000.0 nM
[3] = molecular target: Transient receptor potential cation channel subfamily M member 6 (Homo sapiens) (UniProt Q9BX84); conditions: Compound concentration 1000.0 nM
[4] = molecular target: Platelet-derived growth factor receptor beta (Homo sapiens) (UniProt P09619); conditions: Compound concentration 1000.0 nM
[5] = tested on: Hepatocyte growth factor receptor (Homo sapiens), P08581 [Y1235D]; conditions: Compound concentration 1000.0 nM
[6] = tested on: Epidermal growth factor receptor (Homo sapiens), P00533 [UNDEFINED MUTATION]; conditions: Compound concentration 1000.0 nM
[7] = molecular target: Fibroblast growth factor receptor 4 (Homo sapiens) (UniProt P22455); conditions: Compound concentration 1000.0 nM
[8] = molecular target: Serine/threonine-protein kinase PAK 2 (Homo sapiens) (UniProt Q13177); conditions: Compound concentration 1000.0 nM
[9] = molecular target: Vascular endothelial growth factor receptor 2 (Homo sapiens) (UniProt P35968); conditions: Compound concentration 1000.0 nM
[10] = molecular target: Serine/threonine-protein kinase Sgk3 (Homo sapiens) (UniProt Q96BR1); conditions: Compound concentration 1000.0 nM
[11] = molecular target: Casein kinase I isoform gamma-3 (Homo sapiens) (UniProt Q9Y6M4); conditions: Compound concentration 1000.0 nM
[12] = molecular target: Ribosomal protein S6 kinase alpha-3 (Homo sapiens) (UniProt P51812); conditions: Compound concentration 1000.0 nM
[13] = molecular target: Activin receptor type-1B (Homo sapiens) (UniProt P36896); conditions: Compound concentration 1000.0 nM
[14] = tested on: Phosphatidylinositol 4,5-bisphosphate 3-kinase catalytic subunit alpha isoform (Homo sapiens), P42336 [H1047Y]; conditions: Compound concentration 1000.0 nM
[15] = molecular target: Cyclin-dependent kinase 8 (Homo sapiens) (UniProt P49336); conditions: Compound concentration 1000.0 nM
[16] = molecular target: Homeodomain-interacting protein kinase 1 (Homo sapiens) (UniProt Q86Z02); conditions: Compound concentration 1000.0 nM
[17] = molecular target: Phosphatidylinositol 5-phosphate 4-kinase type-2 beta (Homo sapiens) (UniProt P78356); conditions: Compound concentration 1000.0 nM
[18] = molecular target: Proto-oncogene tyrosine-protein kinase Src (Homo sapiens) (UniProt P12931); conditions: Compound concentration 1000.0 nM
[19] = molecular target: Serine/threonine-protein kinase STK11 (Homo sapiens) (UniProt Q15831); conditions: Compound concentration 1000.0 nM
[20] = molecular target: Aurora kinase B (Homo sapiens) (UniProt Q96GD4); conditions: Compound concentration 1000.0 nM
[21] = molecular target: Mitogen-activated protein kinase 13 (Homo sapiens) (UniProt O15264); conditions: Compound concentration 1000.0 nM
[22] = molecular target: Serine/threonine-protein kinase PAK 1 (Homo sapiens) (UniProt Q13153); conditions: Compound concentration 1000.0 nM
[23] = molecular target: 5'-AMP-activated protein kinase catalytic subunit alpha-1 (Homo sapiens) (UniProt Q13131); conditions: Compound concentration 1000.0 nM
[24] = molecular target: Bone morphogenetic protein receptor type-1B (Homo sapiens) (UniProt O00238); conditions: Compound concentration 1000.0 nM
[25] = molecular target: Tyrosine-protein kinase receptor TYRO3 (Homo sapiens) (UniProt Q06418); conditions: Compound concentration 1000.0 nM
[26] = molecular target: Protein kinase C iota type (Homo sapiens) (UniProt P41743); conditions: Compound concentration 1000.0 nM
[27] = tested on: Epidermal growth factor receptor (Homo sapiens), P00533 [L861Q]; conditions: Compound concentration 1000.0 nM
[28] = molecular target: Tyrosine-protein kinase ABL1 (Homo sapiens) (UniProt P00519); conditions: Compound concentration 1000.0 nM
[29] = tested on: Fibroblast growth factor receptor 3 (Homo sapiens), P22607 [G697C]; conditions: Compound concentration 1000.0 nM
[30] = molecular target: Citron Rho-interacting kinase (Homo sapiens) (UniProt O14578); conditions: Compound concentration 1000.0 nM
[31] = molecular target: Dual serine/threonine and tyrosine protein kinase (Homo sapiens) (UniProt Q6XUX3); conditions: Compound concentration 1000.0 nM
[32] = molecular target: Non-receptor tyrosine-protein kinase TYK2 (Homo sapiens) (UniProt P29597); conditions: Compound concentration 1000.0 nM
[33] = molecular target: Tyrosine-protein kinase Fgr (Homo sapiens) (UniProt P09769); conditions: Compound concentration 1000.0 nM
[34] = molecular target: Epidermal growth factor receptor (Homo sapiens) (UniProt P00533); conditions: Compound concentration 1000.0 nM
[35] = molecular target: D(3) dopamine receptor (Homo sapiens) (UniProt P35462); conditions: Compound concentration 10.0 uM
[36] = tested on: Tyrosine-protein kinase ABL1 (Homo sapiens), P00519 [F317I]; conditions: Compound concentration 1000.0 nM
[37] = molecular target: Calcium/calmodulin-dependent protein kinase type II subunit delta (Homo sapiens) (UniProt Q13557); conditions: Compound concentration 1000.0 nM
[38] = molecular target: Serine/threonine-protein kinase WNK2 (Homo sapiens) (UniProt Q9Y3S1); conditions: Compound concentration 1000.0 nM
[39] = molecular target: 5-hydroxytryptamine receptor 7 (Homo sapiens) (UniProt P34969); conditions: Compound concentration 10.0 uM
[40] = tested on: Mast/stem cell growth factor receptor Kit (Homo sapiens), P10721 [A829P]; conditions: Compound concentration 1000.0 nM
[41] = molecular target: Rho-associated protein kinase 2 (Homo sapiens) (UniProt O75116); conditions: Compound concentration 1000.0 nM
[42] = molecular target: Serine/threonine-protein kinase VRK2 (Homo sapiens) (UniProt Q86Y07); conditions: Compound concentration 1000.0 nM
[43] = molecular target: Ribosomal protein S6 kinase alpha-5 (Homo sapiens) (UniProt O75582); conditions: Compound concentration 1000.0 nM
[44] = tested on: Epidermal growth factor receptor (Homo sapiens), P00533 [UNDEFINED MUTATION]; conditions: Compound concentration 1000.0 nM; remark: listed apart in the source
[45] = molecular target: Mast/stem cell growth factor receptor Kit (Homo sapiens) (UniProt P10721); conditions: Compound concentration 1000.0 nM

Sequence of Activin receptor type-1B (Homo sapiens) (P36896 whole entry, canonical isoform): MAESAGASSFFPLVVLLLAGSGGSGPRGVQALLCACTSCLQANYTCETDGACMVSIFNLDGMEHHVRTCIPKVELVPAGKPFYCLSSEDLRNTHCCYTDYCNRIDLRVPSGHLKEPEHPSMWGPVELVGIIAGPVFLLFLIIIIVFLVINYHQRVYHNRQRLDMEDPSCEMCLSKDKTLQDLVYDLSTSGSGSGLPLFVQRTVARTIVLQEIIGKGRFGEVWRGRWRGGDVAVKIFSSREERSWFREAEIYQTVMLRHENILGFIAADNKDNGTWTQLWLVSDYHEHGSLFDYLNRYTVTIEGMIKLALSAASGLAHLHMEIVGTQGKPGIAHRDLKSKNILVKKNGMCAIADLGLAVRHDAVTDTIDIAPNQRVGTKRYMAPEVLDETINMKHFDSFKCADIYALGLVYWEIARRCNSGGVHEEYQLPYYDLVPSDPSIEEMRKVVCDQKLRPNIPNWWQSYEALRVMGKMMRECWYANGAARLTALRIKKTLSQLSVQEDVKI
Sequence of Serine/threonine-protein kinase PAK 1 (Homo sapiens) (Q13153 whole entry): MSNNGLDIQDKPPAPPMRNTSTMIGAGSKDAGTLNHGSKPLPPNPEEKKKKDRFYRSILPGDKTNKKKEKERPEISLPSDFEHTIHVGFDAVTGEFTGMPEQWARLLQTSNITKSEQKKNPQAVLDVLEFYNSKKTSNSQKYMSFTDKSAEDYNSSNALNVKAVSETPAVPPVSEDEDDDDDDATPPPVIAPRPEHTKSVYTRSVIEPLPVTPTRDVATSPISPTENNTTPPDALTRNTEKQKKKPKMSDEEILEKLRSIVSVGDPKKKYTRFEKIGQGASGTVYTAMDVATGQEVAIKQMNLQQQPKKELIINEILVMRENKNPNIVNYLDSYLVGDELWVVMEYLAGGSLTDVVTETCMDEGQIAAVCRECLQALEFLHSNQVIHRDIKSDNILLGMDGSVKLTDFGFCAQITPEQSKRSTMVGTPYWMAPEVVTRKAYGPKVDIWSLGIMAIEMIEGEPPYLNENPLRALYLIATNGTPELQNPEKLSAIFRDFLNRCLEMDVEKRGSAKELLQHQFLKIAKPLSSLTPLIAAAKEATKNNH
Sequence of Phosphatidylinositol 4,5-bisphosphate 3-kinase catalytic subunit alpha isoform (Homo sapiens), P42336 [H1047Y] (P42336 whole entry H1047Y, canonical isoform): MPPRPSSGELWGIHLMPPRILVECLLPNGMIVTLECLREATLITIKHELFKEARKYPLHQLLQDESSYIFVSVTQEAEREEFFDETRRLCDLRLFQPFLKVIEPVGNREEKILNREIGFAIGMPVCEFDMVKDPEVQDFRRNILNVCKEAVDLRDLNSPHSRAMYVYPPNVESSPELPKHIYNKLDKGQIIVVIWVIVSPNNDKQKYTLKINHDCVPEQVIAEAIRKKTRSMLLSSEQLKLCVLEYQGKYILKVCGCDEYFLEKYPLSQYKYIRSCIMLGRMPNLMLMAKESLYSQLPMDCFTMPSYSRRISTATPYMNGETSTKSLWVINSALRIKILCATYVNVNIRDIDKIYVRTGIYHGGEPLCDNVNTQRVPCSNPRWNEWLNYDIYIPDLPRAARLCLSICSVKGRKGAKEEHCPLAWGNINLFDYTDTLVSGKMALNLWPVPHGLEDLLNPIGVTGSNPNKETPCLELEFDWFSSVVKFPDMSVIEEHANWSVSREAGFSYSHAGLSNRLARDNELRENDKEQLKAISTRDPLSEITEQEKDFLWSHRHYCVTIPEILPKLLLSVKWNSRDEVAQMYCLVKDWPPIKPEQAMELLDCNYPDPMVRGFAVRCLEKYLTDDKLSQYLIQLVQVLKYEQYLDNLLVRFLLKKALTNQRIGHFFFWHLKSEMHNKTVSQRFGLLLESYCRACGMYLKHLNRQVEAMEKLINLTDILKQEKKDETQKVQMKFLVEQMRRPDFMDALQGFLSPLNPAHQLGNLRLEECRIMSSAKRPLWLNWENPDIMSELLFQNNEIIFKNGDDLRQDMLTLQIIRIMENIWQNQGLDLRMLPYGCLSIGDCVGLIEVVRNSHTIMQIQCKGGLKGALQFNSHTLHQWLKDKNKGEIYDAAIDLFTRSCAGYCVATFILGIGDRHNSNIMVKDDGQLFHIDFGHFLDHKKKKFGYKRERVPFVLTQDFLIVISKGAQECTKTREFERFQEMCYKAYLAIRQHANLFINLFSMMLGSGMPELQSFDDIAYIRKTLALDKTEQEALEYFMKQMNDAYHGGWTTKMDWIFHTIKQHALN
Sequence of 5-hydroxytryptamine receptor 7 (Homo sapiens) (P34969 whole entry): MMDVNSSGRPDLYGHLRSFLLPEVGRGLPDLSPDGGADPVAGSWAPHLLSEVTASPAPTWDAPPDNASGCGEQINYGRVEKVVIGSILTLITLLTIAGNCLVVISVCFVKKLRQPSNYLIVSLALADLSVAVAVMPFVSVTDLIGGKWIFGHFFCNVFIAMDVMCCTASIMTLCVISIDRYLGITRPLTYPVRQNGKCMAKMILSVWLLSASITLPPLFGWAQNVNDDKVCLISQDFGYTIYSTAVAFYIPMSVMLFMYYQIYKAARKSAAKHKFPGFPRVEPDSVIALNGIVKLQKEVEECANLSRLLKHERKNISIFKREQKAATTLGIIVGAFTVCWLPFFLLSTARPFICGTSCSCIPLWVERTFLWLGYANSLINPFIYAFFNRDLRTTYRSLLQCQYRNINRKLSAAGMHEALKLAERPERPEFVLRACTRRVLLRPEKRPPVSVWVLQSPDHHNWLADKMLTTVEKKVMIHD
Sequence of Tyrosine-protein kinase ABL1 (Homo sapiens) (P00519 whole entry): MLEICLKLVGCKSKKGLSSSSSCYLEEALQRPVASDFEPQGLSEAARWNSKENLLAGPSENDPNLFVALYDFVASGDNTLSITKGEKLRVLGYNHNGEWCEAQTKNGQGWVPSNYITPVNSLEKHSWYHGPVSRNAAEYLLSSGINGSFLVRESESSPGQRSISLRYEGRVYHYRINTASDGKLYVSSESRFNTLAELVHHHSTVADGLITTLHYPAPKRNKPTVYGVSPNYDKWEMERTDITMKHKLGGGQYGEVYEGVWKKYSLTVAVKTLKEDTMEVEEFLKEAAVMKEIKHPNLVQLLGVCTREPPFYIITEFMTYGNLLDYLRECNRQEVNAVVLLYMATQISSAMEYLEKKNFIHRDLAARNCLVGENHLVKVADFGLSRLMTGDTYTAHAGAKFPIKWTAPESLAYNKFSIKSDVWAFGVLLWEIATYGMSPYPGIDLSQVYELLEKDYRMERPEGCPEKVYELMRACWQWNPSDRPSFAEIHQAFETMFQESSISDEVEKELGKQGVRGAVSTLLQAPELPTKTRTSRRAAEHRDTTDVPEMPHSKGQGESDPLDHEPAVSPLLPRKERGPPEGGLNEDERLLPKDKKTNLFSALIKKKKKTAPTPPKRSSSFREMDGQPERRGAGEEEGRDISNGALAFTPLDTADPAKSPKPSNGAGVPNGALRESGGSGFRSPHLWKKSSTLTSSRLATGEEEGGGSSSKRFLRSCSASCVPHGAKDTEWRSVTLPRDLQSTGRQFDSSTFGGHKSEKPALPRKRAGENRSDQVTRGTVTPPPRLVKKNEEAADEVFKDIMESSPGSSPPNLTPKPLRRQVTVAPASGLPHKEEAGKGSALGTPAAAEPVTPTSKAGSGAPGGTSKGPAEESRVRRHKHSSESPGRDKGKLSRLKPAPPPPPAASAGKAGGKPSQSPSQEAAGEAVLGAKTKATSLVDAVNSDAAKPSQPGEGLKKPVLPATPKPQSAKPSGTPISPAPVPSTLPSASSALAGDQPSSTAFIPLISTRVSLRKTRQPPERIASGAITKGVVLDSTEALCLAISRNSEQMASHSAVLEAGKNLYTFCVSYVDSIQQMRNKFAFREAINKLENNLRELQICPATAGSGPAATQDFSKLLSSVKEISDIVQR
Sequence of Cyclin-dependent kinase 8 (Homo sapiens) (P49336 whole entry): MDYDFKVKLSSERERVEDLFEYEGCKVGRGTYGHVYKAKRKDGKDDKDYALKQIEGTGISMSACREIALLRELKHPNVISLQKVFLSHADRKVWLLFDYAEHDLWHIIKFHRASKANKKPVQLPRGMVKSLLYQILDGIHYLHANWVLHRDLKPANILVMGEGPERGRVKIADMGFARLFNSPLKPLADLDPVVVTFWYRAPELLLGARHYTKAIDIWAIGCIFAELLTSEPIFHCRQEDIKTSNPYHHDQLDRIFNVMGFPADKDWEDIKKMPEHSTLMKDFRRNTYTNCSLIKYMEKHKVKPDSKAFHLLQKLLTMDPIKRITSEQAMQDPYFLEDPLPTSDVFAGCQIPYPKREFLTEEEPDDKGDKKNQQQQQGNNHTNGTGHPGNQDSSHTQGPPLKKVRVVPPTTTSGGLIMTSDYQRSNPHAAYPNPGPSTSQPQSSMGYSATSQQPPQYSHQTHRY
Sequence of Ribosomal protein S6 kinase alpha-3 (Homo sapiens) (P51812 whole entry): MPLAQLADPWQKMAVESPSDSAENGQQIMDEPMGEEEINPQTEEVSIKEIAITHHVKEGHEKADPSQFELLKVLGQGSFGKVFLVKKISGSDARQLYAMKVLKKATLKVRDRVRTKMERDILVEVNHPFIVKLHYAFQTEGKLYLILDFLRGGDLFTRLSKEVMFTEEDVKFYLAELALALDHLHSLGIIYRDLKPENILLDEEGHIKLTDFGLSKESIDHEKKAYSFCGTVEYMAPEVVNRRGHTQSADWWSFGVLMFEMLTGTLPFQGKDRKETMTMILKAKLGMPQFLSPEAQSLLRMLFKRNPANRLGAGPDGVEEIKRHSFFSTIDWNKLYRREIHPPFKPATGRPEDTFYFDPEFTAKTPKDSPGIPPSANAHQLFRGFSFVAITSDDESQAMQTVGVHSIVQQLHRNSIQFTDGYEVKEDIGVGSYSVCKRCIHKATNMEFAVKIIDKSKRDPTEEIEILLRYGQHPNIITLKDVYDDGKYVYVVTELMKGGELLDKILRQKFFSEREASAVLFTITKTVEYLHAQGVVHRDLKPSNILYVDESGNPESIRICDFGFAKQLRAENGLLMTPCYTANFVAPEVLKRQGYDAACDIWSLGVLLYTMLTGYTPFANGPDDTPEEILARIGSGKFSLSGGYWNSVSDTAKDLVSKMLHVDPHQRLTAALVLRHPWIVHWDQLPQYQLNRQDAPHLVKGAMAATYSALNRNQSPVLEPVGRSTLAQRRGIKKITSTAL
Sequence of Tyrosine-protein kinase ABL1 (Homo sapiens), P00519 [F317I] (P00519 whole entry F317I): as the sequence (P00519 whole entry) above, with F317I counted along it

O=C(NC[C@@H]1[C@H]2CN(C(=O)OCc3cc(C(F)(F)F)cc(C(F)(F)F)c3)C[C@@H]12)c1ccc2[nH]nnc2c1 [BI 2545]
residual activity [1]: 100%
residual activity [2]: 60%
residual activity [3]: 92%
residual activity [4]: 90%
residual activity [5]: 76%
residual activity [6]: 100%
residual activity [7]: 82%
residual activity [8]: 100%
residual activity [9]: 96%
residual activity [10]: 84%
residual activity [11]: 89%
residual activity [12]: 89%
residual activity [13]: 100%
residual activity [14]: 62%
residual activity [15]: 100%
residual activity [16]: 85%
residual activity [17]: 100%
residual activity [18]: 100%
residual activity [19]: 100%
residual activity [20]: 84%
residual activity [21]: 100%
residual activity [22]: 100%
residual activity [23]: 100%
residual activity [24]: 95%
residual activity [25]: 75%
residual activity [26]: 98%
residual activity [27]: 100%
residual activity [28]: 87%
residual activity [29]: 92%
residual activity [30]: 100%
residual activity [31]: 82%
residual activity [32]: 100%
residual activity [33]: 88%
residual activity [34]: 99%
inhibition [35]: 6.61%
residual activity [36]: 88%
residual activity [37]: 100%
residual activity [38]: 84%
inhibition [39]: 19%
residual activity [40]: 100%
residual activity [41]: 90%
residual activity [42]: 100%
residual activity [43]: 100%
residual activity [44]: 83%
residual activity [45]: 90%

Cc1nccc(COC(=O)N2C[C@@H]3[C@@H](CNC(=O)c4ccc5[nH]nnc5c4)[C@@H]3C2)n1 [BI 3017]
residual activity [1]: 94%
residual activity [2]: 97%
residual activity [3]: 85%
residual activity [4]: 84%
residual activity [5]: 92%
residual activity [6]: 100%
residual activity [7]: 81%
residual activity [8]: 100%
residual activity [9]: 80%
residual activity [10]: 100%
residual activity [11]: 100%
residual activity [12]: 86%
residual activity [13]: 92%
residual activity [14]: 82%
residual activity [15]: 75%
residual activity [16]: 82%
residual activity [17]: 100%
residual activity [18]: 100%
residual activity [19]: 100%
residual activity [20]: 93%
residual activity [21]: 98%
residual activity [22]: 92%
residual activity [23]: 92%
residual activity [24]: 100%
residual activity [25]: 100%
residual activity [26]: 100%
residual activity [27]: 100%
residual activity [28]: 91%
residual activity [29]: 97%
residual activity [30]: 100%
residual activity [31]: 69%
residual activity [32]: 100%
residual activity [33]: 100%
residual activity [34]: 82%
inhibition [35]: 1.07%
residual activity [36]: 81%
residual activity [37]: 100%
residual activity [38]: 79%
inhibition [39]: 9.56%
residual activity [40]: 94%
residual activity [41]: 86%
residual activity [42]: 29%
residual activity [43]: 74%
residual activity [44]: 100%
residual activity [45]: 79%
